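Growth conditions: 96-well plates. Treatment: test compound, 48 hours, 5 concentrations. Analysis: linear interpolation between bracketing concentrations; unreached endpoints set to highest concentration. The concentration for full growth arrest is given as TGI.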
Experiments:
Experiment in all cases: inhibition of tumour cell growth, NCI panel, 48 h
[1] = system: SF-268 CNS
[2] = system: EKVX NSCLC
[3] = system: M14 melanoma
[4] = system: HT29 colon
[5] = system: MOLT-4 leukemia
[6] = system: HOP-62 NSCLC
[7] = system: HS 578T breast
[8] = system: UACC-257 melanoma
[9] = system: CCRF-CEM leukemia
[10] = system: PC-3 prostate
[11] = system: NCI-H23 lung
[12] = system: K-562 leukemia
[13] = system: OVCAR-3 ovarian
[14] = system: OVCAR-8 ovarian
[15] = system: TK-10 renal
[16] = system: BT-549 breast
[17] = system: MCF7 breast
[18] = system: UO-31 renal
[19] = system: NCI-H226 lung
[20] = system: SK-OV-3 ovarian
[21] = system: HCT-116 colon
[22] = system: A498 renal
[23] = system: COLO 205 colon
[24] = system: UACC-62 melanoma
[25] = system: 786-0 renal
[26] = system: NCI-H522 lung
[27] = system: IGROV1 ovarian
[28] = system: LOX IMVI melanoma
[29] = system: OVCAR-4 ovarian
[30] = system: NCI/ADR-RES ovarian
[31] = system: CAKI-1 renal
[32] = system: SF-539 CNS
[33] = system: A549 NSCLC
[34] = system: KM12 colon
[35] = system: U251 CNS
[36] = system: HOP-92 NSCLC
[37] = system: RXF 393 renal
[38] = system: HCT-15 colon
[39] = system: T-47D breast
[40] = system: SN12C renal
[41] = system: SNB-75 CNS
[42] = system: SK-MEL-2 melanoma
[43] = system: HL-60(TB) leukemia
[44] = system: SW-620 colon
[45] = system: DU-145 prostate
[46] = system: OVCAR-5 ovarian
[47] = system: NCI-H460 lung
[48] = system: RPMI-8226 leukemia
[49] = system: SF-295 CNS
[50] = system: ACHN renal
[51] = system: MDA-MB-435
[52] = system: SNB-19 CNS
[53] = system: MDA-MB-231 breast
[54] = system: HCC-2998 colon
[55] = system: SK-MEL-28 melanoma
[56] = system: SK-MEL-5 melanoma
[57] = system: MALME-3M melanoma

Measured: TGI

CC1=C(C(=O)NCCc2ccccc2)CC(C(=O)NCCc2ccccc2)=C(C)N1
76.5 µM: [9]
> 100 µM: [1] | [2] | [3] | [4] | [5] | [6] | [7] | [8] | [10] | [11] | [12] | [13] | [14] | [15] | [16] | [17] | [18] | [19] | [20] | [21] | [22] | [23] | [24] | [25] | [26] | [27] | [28] | [29] | [30] | [31] | [32] | [33] | [34] | [35] | [36] | [37] | [38] | [39] | [40] | [42] | [43] | [44] | [45] | [46] | [47] | [48] | [49] | [50] | [51] | [53] | [54]
72.5 µM: [52]
69.2 µM: [41]

COc1cc(C2C3=C(COC3=O)Oc3cc4c(cc32)OCO4)ccc1OC(C)=O (centres undefined)
> 29.8 µM: [29]
27.1 µM: [53]
> 49.6 µM: [9]
0.686 µM: [7]
98.7 µM: [5]
0.565 µM: [57]
12.6 µM: [16]
> 59.5 µM: [1]
0.904 µM: [31]
> 56.4 µM: [14]
0.907 µM: [43]
0.749 µM: [32]
0.602 µM: [23]
> 38.7 µM: [12]
23.8 µM: [34]
0.585 µM: [41]
> 100 µM: [2] | [3] | [6] | [8] | [10] | [11] | [15] | [17] | [18] | [19] | [21] | [55] | [24] | [25] | [28] | [30] | [56] | [33] | [35] | [37] | [38] | [39] | [40] | [42] | [44] | [45] | [46] | [47] | [48] | [50] | [52]
5.96 µM: [54]
> 30.3 µM: [22]
0.909 µM: [20]
